This is an account of results in US20070264659A1, “LUNG CANCER BIOMARKER DISCOVERY” (priority 2006, published 2007).

This assay has as its system lung cancer cell lines A549, NCI-H146 and NCI-H358. The assay is described as follows: Reactivation of 20 identified genes by treatment of demethylating agent (gene expression). The format is cell-based. Particulars: lung cancer cells treated with DAC compared with untreated cells; FIG. 4B. The protocol:
Separately, lung cancer cell lines such as A549, NCI-H146 and NCI-H358 are treated with a demethylating agent DAC and assayed for reactivation of genes that are normally repressed in tumor cells. Overlapping genes between the tumor suppressed gene set and the demethylation reactivated gene set are considered to be candidate genes for lung cancer biomarkers. One hundred six (106) such overlapping genes were found (FIG. 1). Methylation sensitive enzyme/nucleic acid sequence based amplification analysis such as Hpa II Mspl enzyme digestion/PCR (or enzyme digestion post-PCR) further removed a few other genes that were not methylated in any of the lung cancer cell lines. To further confirm biochemically that the candidate gene was indeed methylated in tumor cells, bisulfite sequencing assays were conducted and methylation of the final 20 genes was verified.
Gene expression profiles of the 20 genes were created. The expression level of the 20 genes was measured in lung cancer cell lines treated with DAC (FIG. 4B). Methylation status of the genes was also measured using methylation sensitive enzyme/nucleic acid sequence based amplification analysis such as Hpa II/MspI enzyme digestion/PCR (or enzyme digestion post-PCR) method on lung cancer cell lines and the results for the 20 genes is shown in FIG. 4A. The identified genes are not methylated in normal cells. […]

In the case of `Nc1ncn([C@H]2C[C@H](O)[C@@H](CO)O2)c(=O)n1` [DAC, 5 aza 2′-deoxycytidine], the “gene expression of the 20 identified genes in lung cancer cells treated with demethylating agent” value is given as “reactivated”.
